Measurements as given in ChEMBL document CHEMBL1201862, “PubChem BioAssay data set” (2004).
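Grown in 96-well plates, cells were treated for 48 hours with each compound at five concentrations. Insufficient inhibition: endpoint recorded as highest concentration tested. Here, GI50 denotes the concentration required for 50% inhibition of growth.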 Activity calls are given as the source filed them. No stated cut-off is given here; in the data, active = GI50 up to about 1.1 µM and inactive = higher.

Tests used:
Test in all cases: NCI-60 cell line screen, 48 h
SR = test system: SR
LOX IMVI = test system: LOX IMVI
PC-3 = test system: PC-3
NCI-H522 = test system: NCI-H522
A498 = test system: A498
OVCAR-4 = test system: OVCAR-4
NCI-H460 = test system: NCI-H460
NCI-H23 = test system: NCI-H23
SW-620 = test system: SW-620
SK-OV-3 = test system: SK-OV-3
DU-145 = test system: DU-145
OVCAR-8 = test system: OVCAR-8
UO-31 = test system: UO-31
A549 = test system: A549
SF-268 = test system: SF-268
K562 = test system: K562
M14 = test system: M14
HCC 2998 = test system: HCC 2998
SK-MEL-28 = test system: SK-MEL-28
SN12C = test system: SN12C

Measured: GI50

NC(=O)N/N=C(/CC1C(=O)Oc2ccccc21)c1ccccc1O (stereo not drawn)
inactive: SR 18.9 µM | LOX IMVI 20.4 µM | PC-3 > 100 µM | NCI-H522 > 100 µM | A498 49.3 µM | OVCAR-4 41.7 µM | NCI-H460 39.4 µM | NCI-H23 31.5 µM | SW-620 45.7 µM | SK-OV-3 34.1 µM | DU-145 50.1 µM | OVCAR-8 28.6 µM | UO-31 41.1 µM | A549 > 100 µM | SF-268 > 100 µM | K562 30.8 µM | M14 > 100 µM | HCC 2998 35 µM | SK-MEL-28 48.3 µM | SN12C 83.6 µM

CCOC(=O)C(NC(=O)OCc1ccccc1)C(=O)O (stereo not drawn)
inactive: SR > 100 µM | LOX IMVI > 100 µM | PC-3 > 100 µM | NCI-H522 > 100 µM | A498 > 100 µM | OVCAR-4 > 100 µM | NCI-H460 > 100 µM | NCI-H23 > 100 µM | SW-620 > 100 µM | DU-145 > 100 µM | OVCAR-8 > 100 µM | UO-31 > 100 µM | A549 > 100 µM | SF-268 > 100 µM | K562 > 100 µM | M14 > 100 µM | HCC 2998 > 100 µM | SK-MEL-28 > 100 µM | SN12C > 100 µM

COc1ccc(C(OCC2OC(n3cc(C)c(=O)[nH]c3=O)CC2n2cc(Cn3cc(Cl)c(=O)[nH]c3=O)nn2)(c2ccccc2)c2ccccc2)cc1 (stereo not drawn)
inactive: SR 4.02 µM | LOX IMVI > 100 µM | PC-3 13.6 µM | NCI-H522 > 100 µM | A498 > 100 µM | OVCAR-4 > 100 µM | NCI-H23 > 100 µM | SW-620 > 100 µM | SK-OV-3 > 100 µM | DU-145 > 100 µM | OVCAR-8 > 100 µM | UO-31 > 100 µM | A549 > 100 µM | SF-268 > 100 µM | M14 > 100 µM | HCC 2998 > 100 µM | SK-MEL-28 87.5 µM | SN12C > 100 µM

Clc1nss/c1=N/c1nonc1-c1ccccc1
inactive: SR 18.4 µM | LOX IMVI 27.3 µM | PC-3 38.3 µM | NCI-H522 18.3 µM | A498 71.6 µM | OVCAR-4 49.9 µM | NCI-H460 > 100 µM | NCI-H23 26.1 µM | SW-620 41.6 µM | SK-OV-3 > 100 µM | DU-145 22.7 µM | OVCAR-8 28.6 µM | UO-31 17.6 µM | A549 68.9 µM | K562 23.2 µM | M14 16 µM | HCC 2998 > 100 µM | SK-MEL-28 48.1 µM | SN12C 18 µM

CC(C)OC(=O)NNc1c(Cl)cc(Cl)cc1Cl
inactive: SR 55.3 µM | LOX IMVI 76.7 µM | PC-3 36.9 µM | NCI-H522 30.1 µM | A498 30.5 µM | NCI-H460 63.7 µM | NCI-H23 > 100 µM | SW-620 > 100 µM | SK-OV-3 > 100 µM | DU-145 > 100 µM | OVCAR-8 > 100 µM | UO-31 55.8 µM | A549 53 µM | SF-268 39.1 µM | K562 55.6 µM | M14 51.5 µM | HCC 2998 89.9 µM | SK-MEL-28 > 100 µM | SN12C > 100 µM

COc1cc(Nc2nc3ccccc3n3cccc23)cc(OC)c1OC
inactive: SR > 100 µM | LOX IMVI > 100 µM | PC-3 > 100 µM | NCI-H522 > 100 µM | A498 > 100 µM | NCI-H460 > 100 µM | NCI-H23 73.8 µM | SW-620 > 100 µM | SK-OV-3 37.3 µM | DU-145 > 100 µM | OVCAR-8 20.3 µM | UO-31 > 100 µM | A549 > 100 µM | SF-268 28.5 µM | K562 > 100 µM | M14 > 100 µM | HCC 2998 > 100 µM | SK-MEL-28 > 100 µM

Cc1ccc(Nc2nc3c(=O)n(C)c(=O)n(C)c3nc2Nc2ccc(C)cc2)cc1
inactive: SR 5.38 µM | LOX IMVI 10.1 µM | PC-3 14.7 µM | NCI-H522 1.15 µM | A498 16.5 µM | OVCAR-4 11.1 µM | NCI-H460 28.8 µM | NCI-H23 15.9 µM | SW-620 1.74 µM | SK-OV-3 21.9 µM | DU-145 32.4 µM | OVCAR-8 13.6 µM | UO-31 12.1 µM | A549 19.9 µM | SF-268 16 µM | K562 6.56 µM | HCC 2998 17.5 µM | SK-MEL-28 16.7 µM | SN12C 15.5 µM

S=c1nc(Nc2ccccc2)c2c3c(sc2[nH]1)CCCC3
inactive: SR 8.67 µM | LOX IMVI > 100 µM | PC-3 > 100 µM | NCI-H522 71.4 µM | A498 > 100 µM | OVCAR-4 > 100 µM | NCI-H460 > 100 µM | NCI-H23 > 100 µM | SW-620 > 100 µM | DU-145 > 100 µM | OVCAR-8 > 100 µM | UO-31 > 100 µM | SF-268 > 100 µM | K562 > 100 µM | HCC 2998 > 100 µM | SK-MEL-28 > 100 µM | SN12C 56.4 µM

C[C@@]1(O)C2C3CC4C5C3C1[C@](O)(C42)[C@H]5Br (stereo partly drawn)
inactive: SR > 100 µM | LOX IMVI > 100 µM | PC-3 > 100 µM | NCI-H522 > 100 µM | A498 > 100 µM | OVCAR-4 > 100 µM | NCI-H460 > 100 µM | NCI-H23 > 100 µM | SW-620 > 100 µM | DU-145 > 100 µM | OVCAR-8 > 100 µM | UO-31 > 100 µM | A549 > 100 µM | SF-268 > 100 µM | K562 > 100 µM | M14 > 100 µM | HCC 2998 > 100 µM | SK-MEL-28 > 100 µM | SN12C > 100 µM

CCn1c(=O)c2c(=O)[nH][nH]c2c2ccccc21
inactive: SR > 100 µM | LOX IMVI > 100 µM | PC-3 > 100 µM | NCI-H522 > 100 µM | A498 > 100 µM | OVCAR-4 > 100 µM | NCI-H460 > 100 µM | NCI-H23 > 100 µM | SW-620 > 100 µM | DU-145 > 100 µM | OVCAR-8 > 100 µM | UO-31 > 100 µM | A549 > 100 µM | K562 > 100 µM | HCC 2998 > 100 µM | SK-MEL-28 > 100 µM | SN12C > 100 µM

N#Cc1ccc(-c2nc3c(N)ncnc3o2)cc1
inactive: SR > 100 µM | LOX IMVI > 100 µM | PC-3 > 100 µM | NCI-H522 > 100 µM | A498 > 100 µM | NCI-H460 > 100 µM | NCI-H23 > 100 µM | SW-620 > 100 µM | DU-145 > 100 µM | OVCAR-8 > 100 µM | UO-31 > 100 µM | A549 > 100 µM | SF-268 > 100 µM | K562 > 100 µM | M14 > 100 µM | HCC 2998 > 100 µM | SK-MEL-28 > 100 µM | SN12C > 100 µM
